Columns and labels:
[1] = system: P. falciparum stage IV/V gametocytes; assay: LDH-based gametocyte viability assay; type: cell-based, Plasmodium falciparum; details: stage IV to V gametocytes
Experimental: The pLDH assay was performed on late (>95% stage IV/V) gametocytes. Compound dilutions were placed in triplicate in 96-well plates in a final volume of 100 μl per well. DHA and MMV048 were used as positive drug controls. The gametocyte cultures (100 μl per well) were added to the 96-well plates to achieve a final gametocytemia and hematocrit of 2 and 1%, respectively, in a total incubation volume of 200 μl. Plates were incubated at 37°C for 72 hours, followed by the replacement of spent medium with drug-free culture medium (75% medium change) ([54], [55]). Plates were then incubated for a further 72 hours before assessing viability by measuring pLDH activity. Gametocyte viability was determined spectrophotometrically by measuring the activity of pLDH, according to a modified version of a published protocol ([56]). Briefly, 100 μl of Malstat reagent [0.21% (v/v) Triton X-100, 222 mM L-(+)-lactic acid, 54.5 mM tris, 0.166 mM APAD (Sigma-Aldrich, A5251), adjusted to pH 9 with 1 M NaOH] was transferred into a clean 96-well plate. A fixed volume of 20 μl of parasite suspension per well was added to the Malstat plate, followed by the addition of 25 μl of PES/NBT (0.239 mM phenazine ethosulfate and 1.96 mM nitro blue tetrazolium chloride). Absorbance was measured with a Multiskan Ascent 354 multiplate scanner (Thermo LabSystems, Finland) at 620 nm.

[2] = system: P. falciparum 3D7; assay: Ex vivo schizont maturation assay, 3D7 control (Brazil); type: cell-based, Plasmodium falciparum; details: tested in parallel with Brazilian isolates, 20% human serum
Experimental: Only monoinfected patients with P. falciparum with parasitemia between 2000 and 80,000 parasites/μl and with at least 70% of ring-stage parasites were recruited. Patients who had used an antimalarial in the previous month and/or presented with symptoms of severe malaria were excluded from the study. The study cohort comprised 24 patients living in this highly endemic area. A peripheral venous blood sample (5 ml) was collected from each individual by venipuncture in heparin-containing tubes and immediately used in the ex vivo drug susceptibility assay using preprepared plates containing diluted antimalarial compounds. […] Last, 20 μl of each dilution was transferred into the ex vivo assay plate and diluted 10-fold into the final assay medium containing parasites. For the infected blood preparation, 5 ml of whole blood was centrifuged at 800g for 10 min, and the plasma and buffy coat were removed. […] Control assays on a 3D7 laboratory isolate were performed with medium supplemented with human serum (20%). The iRBC (180 μl per well) were distributed in the predosed drug plate. […] Control wells containing drug-free iRBCs were cultured with complete medium. […] The number of schizonts per 200 asexual-stage parasites was determined for each drug concentration and then normalized by comparing with the schizont number in the drug-free control wells [considered as 100% ([64])]. […]

[3] = system: P. falciparum stage V gametocytes (female gamete formation); assay: Female gamete formation inhibition assay; type: cell-based, Plasmodium falciparum; details: 2 μM, 48 hours
Experimental: Mature gametocytes (>95% stage V) were treated with compounds (2 μM) for 48 hours before stimulating female gamete formation. To evaluate compound dose response, gametocytes were treated similarly at set concentrations representing a fourfold serial dilution. Female gamete activation was induced by both a temperature drop and the addition of 100 μM XA. Monoclonal anti-Pfs25 antibody (BEI Resources, catalog number MRA-28; 1:1000 dilution) conjugated to fluorescein isothiocyanate was used to detect female gametes. Image acquisition was performed using a Zeiss Axio Lab.A1 epifluorescence microscope with a 100/1.4 numerical aperture oil immersion objective and a Zeiss Axiocam 202 mono digital camera. Using a 100× objective, 30 images were taken per sample and analyzed manually. The number, size, roundness, and intensity of fluorescence of activated female gametocytes were evaluated. Compound IC50 values were determined with nonlinear curve fitting (GraphPad Prism 6), normalized to maximum and minimum inhibition.

[4] = system: P. falciparum stage V gametocytes (male gamete formation); assay: Exflagellation (male gamete formation) inhibition assay; type: cell-based, Plasmodium falciparum; details: 2 μM, 48 hours
Experimental: The exflagellation inhibition assay was performed by capturing movement of exflagellation centers over time by video microscopy [adapted from a reported protocol ([52])]. For this carry-over format, mature stage V gametocytes were treated with 2 μM of each compound for 48 hours before induction of exflagellation in the presence of compound. To evaluate compound dose response, gametocytes were treated similarly at a set of concentrations representing a fourfold serial dilution. Mature gametocyte cultures (>95% stage V; 500 μl) were centrifuged at 3500 rpm for 30 s, and the pellet was resuspended in 30 μl of ookinete medium [RPMI 1640 medium containing L-glutamine (Sigma-Aldrich, R6504), gentamycin (0.024 mg/ml; HyClone, SV30080.01), 202 μM hypoxanthine (Sigma-Aldrich, H9636), 25 mM Hepes (Sigma-Aldrich, H4034), 0.2% glucose (Sigma-Aldrich, G6152), and 0.5% (w/v) AlbuMAX II (Invitrogen, Paisley, UK), supplemented with 100 μM XA and 20% human serum]. The activated culture (10 μl) was introduced into a Neubauer chamber and placed on the microscope platform to settle homogenously. Time was noted as time zero (T0), and the chamber was incubated at room temperature. Movement was recorded by video microscopy using a Carl Zeiss NT 6V/10W Stab microscope, fitted with a MicroCapture camera at 10× magnification, and then quantified by a semiautomated method, a modification of the method described previously ([53]). A series of 15 videos of 8 to 10 s each were captured at random locations between 15 and 22.5 min after incubation. Each video was analyzed using Icy bioimage analysis software to quantify the number of exflagellating centers. Compound IC50 values were determined with nonlinear curve fitting (GraphPad Prism 6), normalized to maximum and minimum inhibition.

[5] = system: P. falciparum clinical isolates from Porto Velho, Brazil; assay: Ex vivo schizont maturation assay, Brazilian clinical isolates; type: cell-based, Plasmodium falciparum; details: eight Brazilian isolates; read-out: Median EC50, clinical isolates
Experimental: Only monoinfected patients with P. falciparum with parasitemia between 2000 and 80,000 parasites/μl and with at least 70% of ring-stage parasites were recruited. Patients who had used an antimalarial in the previous month and/or presented with symptoms of severe malaria were excluded from the study. The study cohort comprised 24 patients living in this highly endemic area. A peripheral venous blood sample (5 ml) was collected from each individual by venipuncture in heparin-containing tubes and immediately used in the ex vivo drug susceptibility assay using preprepared plates containing diluted antimalarial compounds. […] Last, 20 μl of each dilution was transferred into the ex vivo assay plate and diluted 10-fold into the final assay medium containing parasites. For the infected blood preparation, 5 ml of whole blood was centrifuged at 800g for 10 min, and the plasma and buffy coat were removed. […] Control assays on a 3D7 laboratory isolate were performed with medium supplemented with human serum (20%). The iRBC (180 μl per well) were distributed in the predosed drug plate. […] Control wells containing drug-free iRBCs were cultured with complete medium. The parasite-drug incubation was terminated when 40% of the ring stages reached the schizont stage (at least three distinct nuclei per parasite) in the drug-free control wells. Thick blood films were then made from each well, dried, stained with 5% Giemsa solution for 30 min, and examined microscopically. The number of schizonts per 200 asexual-stage parasites was determined for each drug concentration and then normalized by comparing with the schizont number in the drug-free control wells [considered as 100% ([64])]. The half-maximal drug inhibitory response (EC50) was estimated by curve fitting using software from the OriginLab Corporation, Northampton, MA, USA and comparing with parasite growth in the drug-free controls.

[6] = system: P. falciparum Dd2; assay: P. falciparum Dd2 LDH growth inhibition assay (asexual blood stage); type: cell-based, Plasmodium falciparum; details: multidrug-resistant Dd2; geometric mean ×/÷ geometric SD
Experimental: (§1) P. falciparum isolates (3D7/Dd2) were obtained from BEI Resources and were cultured using standard procedures as described elsewhere ([47]). Briefly, P. falciparum was grown in RPMI 1640 medium (10.3 g/liter) supplemented with L-glutamine (2 mM), hypoxanthine (150 μM), Hepes (25 mM), D-glucose (12 mM), sodium bicarbonate (25.7 mM), AlbuMAX II (0.5% or 5 g/liter) (pH 7.4), and 2% RBC (type O+, freshly prepared). Cultures were replenished with fresh medium and RBCs every other day. For RBC preparation, whole blood was centrifuged at 415g at room temperature for 12 min. After that, the plasma and buffy coat were removed, and packed RBCs were washed three times with 3 vol of RPMI 1640. Last, RBCs were resuspended in 1:1 vol of complete RPMI 1640 medium (containing 0.5% AlbuMAX II).
(§2) The P. falciparum 3D7 and Dd2 LDH growth inhibition assay was carried out as described elsewhere ([48]) with minor modification of the parasitological conditions (10 to 15% parasitemia with ≥80% rings). Data were normalized to percent growth inhibition with respect to […] (for 3D7, a mixture of 100 nM chloroquine and 100 nM atovaquone as 100% inhibition; for Dd2, a mixture of 200 nM DHA and 200 nM atovaquone as 100% inhibition) controls.

[7] = system: P. falciparum ABS; details: read-out: EC50 P. falciparum ABS growth inhibition; cited from earlier work
[8] = system: recombinant human PDE9; set-up: method as in PMID 25555060, PMID 21766240; details: cited from earlier work
[9] = target: T1, PDEβ (Plasmodium falciparum, UniProt Q8I6Z7); assay: cAMP hydrolysis SPA in schizont membrane lysates; type: biochemical; details: read-out: IC50 against PDEβ
T1 construct: endogenous in cells; host or cells: P. falciparum 3D7 schizonts, NP-40 membrane lysate
From the text: We identified three PDE inhibitor chemical series generated by Pfizer, with structures in the public domain, which have activity against malaria parasites (see the “Chemistry strategy summary” section). These series were originally designed to inhibit human PDEs and were chosen as chemistry start points to optimize activity against malaria parasites. More than 400 new analogs were generated (full details of their properties will be reported in a separate paper, in preparation) through iterative rounds of synthesis and testing. The chemistry start points for each of the series were SAL-0010042 (5-benzyl), SAL-0010043 (5-aryl), and SAL-0010034 (2-alkyl) (see Materials and Methods and fig. S1A). S2. Analytical data for these compounds are provided in data S1. All newly synthesized compounds were tested for inhibition of native cAMP-PDE activity in mature schizont crude membrane preparations and inhibition of P. falciparum ABS growth. S3A. […] The unbound EC50 values for the compounds in the parasite growth inhibition assay were consistently calculated to be sevenfold higher than the IC50 values in the biochemical assay. Given that PDEβ is dual specific (i.e., can hydrolyze both cAMP and cGMP), we also determined IC50 values for cGMP hydrolysis. […] The IC50 values measured for cGMP hydrolysis in blood-stage schizonts were generally similar to those for cAMP hydrolysis (Table 1). […]
The cyclic nucleotide hydrolytic activity of membrane-associated parasite PDE enzymes was measured by a scintillation proximity assay (SPA) ([18]) using lysates of mature P. falciparum schizonts or stage IV/V gametocytes. […] The IC50 values for the compounds were determined using threefold serial dilutions in duplicate. […] The reactions were terminated by addition of 25 μl of PDE SPA beads (PerkinElmer, RPNQ0150), and after 20 min of incubation at room temperature, scintillation was measured using a Wallac 1450 Microbeta Counter (PerkinElmer) for 30 s. […]

[10] = system: P. falciparum 3D7; assay: P. falciparum 3D7 LDH growth inhibition assay (asexual blood stage); type: cell-based, Plasmodium falciparum; details: Plasmodium falciparum, 3D7, read-out: EC50 against ABS parasites
Experimental: as §1, §2

[11] = system: malaria parasites; set-up: method as in PMID 25951195, PMID 33262483; details: cited from earlier work
[12] = system: PDE6; set-up: method as in PMID 29743944; details: cited from earlier work

T1 sequence (Q8I6Z7 whole entry): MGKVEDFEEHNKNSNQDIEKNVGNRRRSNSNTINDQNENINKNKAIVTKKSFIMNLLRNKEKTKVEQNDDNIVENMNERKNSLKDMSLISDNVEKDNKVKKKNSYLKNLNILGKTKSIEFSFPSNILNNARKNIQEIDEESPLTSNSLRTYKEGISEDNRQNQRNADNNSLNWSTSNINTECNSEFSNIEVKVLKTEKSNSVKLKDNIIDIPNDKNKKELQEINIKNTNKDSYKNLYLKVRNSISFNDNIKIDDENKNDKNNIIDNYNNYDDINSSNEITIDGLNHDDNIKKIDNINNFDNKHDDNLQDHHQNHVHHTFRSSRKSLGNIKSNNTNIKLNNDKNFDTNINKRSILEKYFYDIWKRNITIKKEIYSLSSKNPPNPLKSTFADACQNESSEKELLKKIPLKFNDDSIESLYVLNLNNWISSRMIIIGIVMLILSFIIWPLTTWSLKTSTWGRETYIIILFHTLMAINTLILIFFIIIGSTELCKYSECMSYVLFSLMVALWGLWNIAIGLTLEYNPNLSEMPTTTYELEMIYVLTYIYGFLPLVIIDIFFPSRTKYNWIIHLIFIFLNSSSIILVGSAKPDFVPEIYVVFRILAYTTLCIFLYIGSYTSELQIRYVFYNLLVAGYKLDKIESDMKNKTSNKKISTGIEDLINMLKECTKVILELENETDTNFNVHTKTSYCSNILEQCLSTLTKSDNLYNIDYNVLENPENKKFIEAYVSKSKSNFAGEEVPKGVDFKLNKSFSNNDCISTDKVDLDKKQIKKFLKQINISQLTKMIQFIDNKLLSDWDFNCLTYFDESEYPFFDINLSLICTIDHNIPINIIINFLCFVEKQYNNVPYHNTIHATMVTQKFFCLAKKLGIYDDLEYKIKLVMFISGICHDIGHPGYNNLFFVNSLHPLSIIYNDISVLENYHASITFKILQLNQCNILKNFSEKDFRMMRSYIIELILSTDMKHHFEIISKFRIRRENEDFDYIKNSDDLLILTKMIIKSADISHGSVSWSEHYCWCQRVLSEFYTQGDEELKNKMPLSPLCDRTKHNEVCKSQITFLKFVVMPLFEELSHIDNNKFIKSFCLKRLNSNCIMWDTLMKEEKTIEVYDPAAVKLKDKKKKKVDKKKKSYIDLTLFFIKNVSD

In the case of `CCc1c2nc(-c3cc(C(=O)NC(C)C)cnc3OCC(C)C)[nH]c(=O)c2nn1CCOC` [SAL-0010255], the “% inhibition gametocyte viability at 15 μM” value [1] is reported as 40.4 ± 3.1%, the EC50 [2] is reported as 89 nM and the “% inhibition of female gamete formation at 2 μM” value [3] is reported as 66.7 ± 1.8%. For the same compound, the “% inhibition of exflagellation at 2 μM” value [4] was 48.8 ± 25.3%, the EC50 [5] was 157 nM and the EC50 [6] was 126 nM.
For `CC(C)c1n[nH]c2c(=O)[nH]c(Cc3ccccc3)nc12` [BIPPO, 5-benzyl-3-isopropyl-1H-pyrazolo[4,3-d]pyrimidin-7(6H)-one], the EC50 [7] is listed as 400 nM, the “Potency against recombinant human PDE9” value [8] is listed as 30 nM and the IC50 [9] is listed as 9 nM.
In the case of `CCCc1nn(C)c2c(=O)[nH]c(-c3cc(S(=O)(=O)N4CCN(C)CC4)ccc3OCC)nc12` [sildenafil], the EC50 [10] is listed as over 25000 nM, the “IC50 against malaria parasites” value [11] is listed as “mid-to-high micromolar range” and the “Selectivity (PDE5 over PDE6)” value [12] is listed as under 10 fold. It also gave an IC50 [9] of over 10000 nM.

From article PMC11623267, “Inhibitors of malaria parasite cyclic nucleotide phosphodiesterases block asexual blood-stage development and mosquito transmission” (Science Advances, 2024)
